Like-named read-outs stand apart in the source and are kept apart here.
What was measured:
[1] = Basal toxicity test, neutral red, alternative LD50 calculated from IC50; conditions: mouse, LD50, alternative LD50 calculated by formula from IC50 in NIH 3T3 cells
Protocol: A low therapeutic index of chemotherapy agents is due to affecting not only cancer formation but also normal cells.
9,000 NIH 3T3 cells/well were placed into 96-well plates for 24 h and then exposed to the test compound over a range of eight concentration (1-1000 μg/ml) for 24 h. Upon that, the cells were incubated with the neutral red dye for 4 h and then OD was determined at 540 nm. […] The IC50 values were calculated using the program Graph Pad Prism® 4.0

[2] = test system: A7R5 (rat aorta smooth muscle) cells; experiment: Intracellular Ca2+ measurements, Fluo-4 NW Calcium Assay Kit, KCl-induced [Ca2+]i increase; assay type: cell-based; conditions: for Ca^2+ antagonist effect compared with Verapamil: relative to Verapamil
Protocol: Changes in intracellular [Ca^2+] concentration were studied using A7R5 (rat aorta smooth muscle) cells and Fluo-4 NW Calcium Assay Kit (“Invitrogen”, Sweden) according to manufacturer's instructions.
Changes in intracellular [Ca^2+]i concentration were studied using Fluo-4 NW Calcium Assay Kit (“Invitrogen”, Sweden) accordingly to manufacturer's instructions. The A7R5 (rat aorta smooth muscle) cells were grown at 37° C. in a humidified atmosphere with 5% CO2/95% air in DMEM medium containing 2 mM glutamine and supplemented with 10% FBS. The cells were seeded into 96 well plate at 10,000 cells/well and incubated for 72 h. The cells were loaded with […] for 45 min. The Fura-4NW loaded cells were pre-incubated in the dark for 15 minutes with tested compounds at concentrations from 0.8 to 100 μM. Then A7R5 cells were pre-treated with 1.5 mM CaCl2 for 5 minutes and KCl (50 mM) was added to A7R5 cells to induce [Ca^2+]i increase. Amlodipine, the well-known calcium channel inhibitor was used as the positive control.

[3] = Rattus norvegicus, A7R5, read-out: Ca^2+ A7R5, IC50

COc1ccc(C(=O)c2sc3nc(C)c(C(C)=O)c(-c4ccc(OC)c(OC)c4)c3c2N)cc1 [Compound 1, 5-Acetyl-3-amino-4-(3,4-dimethoxyphenyl)-2-(4-methoxybenzoyl)-6-methyl-thieno[2,3-b]pyridine]
LD50 at 24 h [1]: > 2000 mg/kg | IC50 [2, 3]: 24 ± 1.2 µM

COc1ccc(C(=O)c2sc3nc(C)c(C(C)=O)c(-c4ccc(OC)c(OC)c4)c3c2N)c(OC)c1 [Compound 2, 5-Acetyl-3-amino-2-(2,4-dimethoxybenzoyl)-4-(3,4-dimethoxyphenyl)-6-methyl-thieno[2,3-b]pyridine]
LD50 at 24 h [1]: > 2000 mg/kg | IC50 [2, 3]: 15 ± 1.1 µM

COc1ccc(C(=O)c2sc3nc(C)c(C(C)=O)c(-c4cc(OC)c(OC)c(OC)c4)c3c2N)cc1 [Compound 3, 5-Acetyl-3-amino-2-(4-methoxybenzoyl)-6-methyl-4-(3,4,5-trimethoxyphenyl)-thieno[2,3-b]pyridine]
LD50 at 24 h [1]: > 2000 mg/kg | IC50 [2, 3]: 14 ± 0.9 µM | Ca^2+ antagonist effect compared with Verapamil ([2]; A7R5 cells): more than ten times lower

COc1ccc(C(=O)c2sc3nc(C)c(C(C)=O)c(-c4cc(OC)c(OC)c(OC)c4)c3c2N)c(OC)c1 [Compound 4, 5-Acetyl-3-amino-2-(2,4-dimethoxybenzoyl)-6-methyl-4-(3,4,5-trimethoxyphenyl)-thieno[2,3-b]pyridine]
LD50 at 24 h [1]: 1070 mg/kg | Ca^2+ A7R5, IC50 ([2]; A7R5 cells, KCl (50 mM) induced [Ca2+]i increase, compounds 0.8 to 100 μM): No effect

COC(=O)c1c(C)nc2sc(C(=O)c3ccc(OC)cc3)c(N)c2c1-c1ccc(OC)cc1 [Compound 5, 3-Amino-2-(4-methoxybenzoyl)-4-(4-methoxyphenyl)-6-methyl-thieno[2,3-b]-pyridine-5-carboxylic acid methyl ester]
LD50 at 24 h [1]: > 2000 mg/kg | IC50 [2, 3]: 15.4 ± 2 µM

COC(=O)c1c(C)nc2sc(C(=O)c3ccc(OC)cc3OC)c(N)c2c1-c1ccc(OC)c(OC)c1 [Compound 7, 3-Amino-2-(2,4-dimethoxybenzoyl)-4-(3,4-dimethoxyphenyl)-6-methyl-thieno[2,3-b]pyridine-5-carboxylic acid methyl ester]
LD50 at 24 h [1]: 1040 mg/kg | IC50 [2, 3]: 5.6 ± 1.4 µM

COC(=O)c1c(C)nc2sc(C(=O)c3ccc(F)cc3)c(N)c2c1-c1cc(OC)c(OC)c(OC)c1 [Compound 8, 3-Amino-2-(4-fluorobenzoyl)-6-methyl-4-(3,4,5-trimethoxyphenyl)thieno[2,3-b]-pyridine-5-carboxylic acid methyl ester]
LD50 at 24 h [1]: > 2000 mg/kg | IC50 [2, 3]: 3 ± 0.8 µM

COC(=O)c1c(C)nc2sc(C(=O)c3ccc(Cl)cc3)c(N)c2c1-c1cc(OC)c(OC)c(OC)c1 [Compound 9, 3-Amino-2-(4-chlorobenzoyl)-6-methyl-4-(3,4,5-trimethoxyphenyl)thieno[2,3-b]-pyridine-5-carboxylic acid methyl ester]
LD50 at 24 h [1]: 1420 mg/kg | IC50 [2, 3]: 3 ± 0.2 µM

CCOC(=O)c1c(C)nc2sc(C(=O)c3ccc(OC)cc3)c(N)c2c1-c1ccc(O)cc1 [Compound 14, 3-Amino-4-(4-hydroxyphenyl)-2-(4-methoxybenzoyl)-6-methylthieno[2,3-b]-pyridine-5-carboxylic acid ethyl ester]
LD50 at 24 h [1]: 231 mg/kg | IC50 [2, 3]: 4.3 ± 0.7 µM

CCOC(=O)c1c(C)nc2sc(C(=O)c3ccc(OC)cc3)c(N)c2c1-c1ccc(O)c(OC)c1 [Compound 16, 3-Amino-4-(4-hydroxy-3-methoxyphenyl)-2-(4-methoxybenzoyl)-6-methyl-thieno[2,3-b]pyridine-5-carboxylic acid ethyl ester]
LD50 at 24 h [1]: > 2000 mg/kg | IC50 [2, 3]: 3.7 ± 0.4 µM | Ca^2+ antagonist effect compared with Verapamil ([2]; A7R5 cells): more than ten times lower

CCOC(=O)c1c(C)nc2sc(C(=O)c3ccc(OC)cc3)c(N)c2c1-c1ccc(OC)cc1 [Compound 17, 3-Amino-2-(4-methoxybenzoyl)-4-(4-methoxyphenyl)-6-methylthieno[2,3-b]-pyridine-5-carboxylic acid ethyl ester]
LD50 at 24 h [1]: > 2000 mg/kg | IC50 [2, 3]: 100 ± 11 µM

CCOC(=O)c1c(C)nc2sc(C(=O)c3ccc(F)cc3)c(N)c2c1-c1ccc(OC)c(OC)c1 [Compound 18, 3-Amino-4-(3,4-dimethoxyphenyl)-2-(4-fluorobenzoyl)-6-methylthieno[2,3-b]-pyridine-5-carboxylic acid ethyl ester]
LD50 at 24 h [1]: > 2000 mg/kg | IC50 [2, 3]: 7 ± 1.2 µM

CCOC(=O)c1c(C)nc2sc(C(=O)c3ccc(Cl)cc3)c(N)c2c1-c1ccc(OC)c(OC)c1 [Compound 19, 3-Amino-2-(4-chlorobenzoyl)-4-(3,4-dimethoxyphenyl)-6-methylthieno[2,3-b]-pyridine-5-carboxylic acid ethyl ester]
LD50 at 24 h [1]: > 2000 mg/kg | IC50 [2, 3]: 11 ± 0.7 µM

CCOC(=O)c1c(C)nc2sc(C(=O)c3ccc(OC)cc3)c(N)c2c1-c1ccc(OC)c(OC)c1 [Compound 20, 3-Amino-4-(3,4-dimethoxyphenyl)-2-(4-methoxybenzoyl)-6-methylthieno[2,3-b]-pyridine-5-carboxylic acid ethyl ester]
LD50 at 24 h [1]: 2040 mg/kg | IC50 [2, 3]: 3 ± 0.4 µM

CCOC(=O)c1c(C)nc2sc(C(=O)c3ccc(OC)cc3OC)c(N)c2c1-c1ccc(OC)c(OC)c1 [Compound 21, 3-Amino-2-(2,4-dimethoxybenzoyl)-4-(3,4-dimethoxyphenyl)-6-methyl-thieno[2,3-b]pyridine-5-carboxylic acid ethyl ester]
LD50 at 24 h [1]: 2360 mg/kg | IC50 [2, 3]: 1.2 ± 0.2 µM

CCOC(=O)c1c(C)nc2sc(C(=O)c3ccc(F)cc3)c(N)c2c1-c1cc(OC)c(OC)c(OC)c1 [Compound 22, 3-Amino-2-(4-fluorobenzoyl)-4-(3,4,5-trimethoxyphenyl)-6-methylthieno[2,3-b]-pyridine-5-carboxylic acid ethyl ester]
LD50 at 24 h [1]: > 2000 mg/kg | IC50 [2, 3]: 20 ± 2 µM | Ca^2+ antagonist effect compared with Verapamil ([2]; A7R5 cells): more than ten times lower

CCOC(=O)c1c(C)nc2sc(C(=O)c3ccc(Cl)cc3)c(N)c2c1-c1cc(OC)c(OC)c(OC)c1 [Compound 23, 3-Amino-2-(4-chlorobenzoyl)-4-(3,4,5-trimethoxyphenyl)-6-methylthieno[2,3-b]-pyridine-5-carboxylic acid ethyl ester]
LD50 at 24 h [1]: 2700 mg/kg | IC50 [2, 3]: 4 ± 0.4 µM

CCOC(=O)c1c(C)nc2sc(C(=O)c3ccc(OC)cc3)c(N)c2c1-c1ccc(OCC)cc1 [Compound 26, 3-Amino-4-(4-ethoxyphenyl)-2-(4-methoxybenzoyl)-6-methylthieno[2,3-b]-pyridine-5-carboxylic acid ethyl ester]
LD50 at 24 h [1]: > 2000 mg/kg | IC50 [2, 3]: > 100 µM

CCOC(=O)c1c(C)nc2sc(C(=O)c3ccc(OC)cc3)c(N)c2c1-c1ccc(Cl)cc1 [Compound 28, 3-Amino-4-(4-chlorophenyl)-2-(4-methoxybenzoyl)-6-methylthieno[2,3-b]-pyridine-5-carboxylic acid ethylester]
LD50 at 24 h [1]: > 2000 mg/kg | IC50 [2, 3]: > 100 µM

CCCOCCOC(=O)c1c(C)nc2sc(C(=O)c3ccc(OC)cc3OC)c(N)c2c1-c1cc(OC)c(OC)c(OC)c1 [Compound 37, 3-Amino-2-(2,4-dimethoxybenzoyl)-6-methyl-4-(3,4,5-trimethoxyphenyl)-thieno[2,3-b]pyridine-5-carboxylic acid 2-propoxyethyl ester]
IC50 ([2]; A7R5 cells, KCl (50 mM) induced [Ca2+]i increase, compounds 0.8 to 100 μM, read-out: Ca^2+ A7R5, IC50): > 100 µM

COc1ccc(C(=O)c2sc3nc(C)cc(C)c3c2N)c(OC)c1 [Compound 45, 3-Amino-4,6-dimethyl-2-(2,4-dimetoxybenzoyl)thieno[2,3-b]pyridine]
LD50 at 24 h [1]: 959 mg/kg

Source: patent publication US9908893B2 (Latvian Institute of Organic Synthesis, priority 2013, dated 2018)
